# According to patent publication US9788539B2, “Platelet protection solution having beta-galactosidase and sialidase inhibitors” (Velico Medical, Inc., priority 2011, dated 2017):
# “Also recorded” adds a separate entry of the source.
# How the values were obtained:
# human platelets [1] = test: Human platelets stored in 30% plasma and 70% PASa at RT, flow cytometry and pH; format: cell-based; details: 7 days at RT
# Procedure: Human platelets were obtained as described in Example 13. The platelet pellet was resuspended in PPP, ⅕ volumes of original PRP, and aliquoted into wells of a 96-well microtiter plate (60 μL per well). PAS (designated as PASa), containing 7.15 mM Na2HPO4, 2.24 mM NaH2PO4, 10 mM sodium citrate, 30 mM sodium acetate, 79.2 mM NaCl, 5.0 mM KCl, and 1.5 mM MgCl2, was added to corresponding wells at 140 μL per well, DANA was added to 0, 0.1, and 0.5 mM from 10 or 100 mM stock in PBS to proper wells. The sample volumes in the wells were evened out with PBS. The plate was then covered with a gas-permeable film and placed on a shaker. Platelet size and density were measured by forward (FSC) and side scatter (SSC) on a FACSCalibur flow cytometer (BD) at Day 7, and pH was checked at Day 9.
# human platelets [2] = test: Human platelets stored in plasma at RT, P-selectin surface expression (CD62P-FITC); format: cell-based; details: stored in plasma with DANA
# mouse platelets [3] = test: In vivo survival of biotinylated platelets after injection of sialidase inhibitor; details: mice injected with 100 mM DANA vs PBS
# Procedure: These studies then addressed whether inhibition of sialidase activity in vivo has an effect on platelet survival. […] Mice were injected with 100 mM DANA or PBS (phosphate buffered saline) as a control, after in vivo platelet biotinylation.
# mouse platelets [4] = test: Mouse platelets stored at RT for 48 h with different concentrations of DANA, counted by flow cytometry; format: cell-based; details: 0.1 mM DANA, 48 h at RT
# Procedure: Mouse platelets were isolated as described in Example 3, re-suspended in platelet resuspension buffer and split to four aliquots. […] The samples were incubated for 30 min at 37° C., centrifuged and supernatants removed. The platelets re-suspended in plasma. DANA and glucose were restored to their initial concentrations. The platelet suspensions were stored at RT. After 48 h, platelets under each storage condition were counted by flow cytometry.
# mouse platelets [5] = test: Mouse platelets stored in 30% plasma and 70% INTERSOL solution at RT for 48 h, flow cytometry; format: cell-based
# Procedure: The supernatant, containing platelet rich plasma, buffy coat, and some RBC, was removed and centrifuged at 300×g for 6 min to obtain platelet rich plasma (PRP). […] About 70% of the supernatant (105 μL) was removed from each tube, and replaced with equal volume of […]® solution. […] The volumes in tubes lacking one or both additives were evened out with PBS. The platelet suspensions were stored at RT for 48 h on a shaker and analyzed by flow cytometry.
# [6] = test system: Serratia marcescens strain (ATCC #43862); test: Biofilm formation of S. marcescens, crystal violet; format: cell-based; details: 1 mM DANA, 48 h, crystal violet A595 nm
# Procedure: (§1) To prepare the seed culture, the cryostock of Serratia marcescens was inoculated into 3 mL of brain-heart infusion broth with a cotton swab and incubated at 37° C. with agitation at 250 rpm for 6 h. The cell density was determined at 600 nm on a dual wavelength spectrometer and diluted to 0.5 McFarland Standard (1.5×10^8 cells/mL) with sterile PBS. Ten μL of the diluted culture was inoculated into 140 μL of 30% plasma in PAS, 30% PC by volume in PAS or 100% plasma, supplemented with or without 1 mM DANA, in the wells of 96-well PVC plates (Corning Biosciences). For each media, six replicates were performed. Ten μL of PBS was inoculated into the control wells. The microtiter plates were then sealed with sterile porous film (VWR) and placed on a platform shaker. The cultures were incubated for 48 h with gentle shaking (˜100 rpm). The cultures were gently mixed and transferred to a polystyrene plate for the determination of planktonic cell density at OD 595 nm. The wells on the original microtiter plates were washed with 3×200 μL of PBS, air dried, stained for 15 min with an aqueous solution of 0.1% (wt/vol) crystal violet, rinsed with water, and air dried for 1 hr. The crystal violet retained by the biofilm was eluted with 200 μL of dimethyl sulfoxide (DMSO) or 30% acetic acid, and read at 595 nm.
# [7] = test system: Serratia marcescens strain (ATCC #43862); test: Planktonic growth of S. marcescens in 96-well PVC plate; format: cell-based; details: 1 mM DANA, 48 h, 30% plasma in PAS, 30% PC in PAS or 100% plasma
# Procedure: as §1, with “Serratia marcescens strain (ATCC #43862) was purchased from American Type Culture Collection (Manassas, Va.). Cells were grown in brain-heart infusion broth (ATCC media 3) at 37° C. and 250 rpm. Frozen stocks were prepared from overnight culture and stored at −80° C. in brain-heart infusion broth containing 15% glycerol by volume. To” for “To”, “The cultures were gently mixed and transferred to a polystyrene plate for the determination of planktonic cell density at OD 595 nm. The wells on the original microtiter plates were washed with 3×200 μL of PBS, air dried, stained for 15 min with an aqueous solution of 0.1% (wt/vol) crystal violet, rinsed with water, and air dried for 1 hr.” left out
# mouse platelets [8] = test: Sialidase (neuraminidase)-induced loss of platelet surface receptors, flow cytometry and immunoblot; format: cell-based; details: mouse platelets, flow cytometry and Western blot
structure (smiles),measurement,setting,value
CC(=O)NC1C(O)C=C(C(=O)O)OC1C(O)C(O)CO (centres unmarked) [DANA],platelet microparticles (G2),human platelets [1]; 0.1 mM DANA (41.5% without),23.95%
same,total acquired events gated as platelets (G1),human platelets [1]; 0.1 mM DANA (55% without),over 70%
same,platelet microparticles (G2),human platelets [1]; 0.5 mM DANA,13.52%
same,total acquired events gated as platelets (G1),human platelets [1]; 0.5 mM DANA,81.6%
same,exposure of P-selectin,human platelets [2],significantly prevented the exposure of P-selectin
same,α-granule release,human platelets [2],inhibited α-granule release
same,survival of biotinylated platelets in vivo,mouse platelets [3],increases mouse platelet life span in vivo; also recorded: increases the survival
same,platelets recovered,"mouse platelets [4]; 8 mM glucose, vs 0 mM DANA",approximately 5 fold
same,size and density of platelets by dot plot analysis,mouse platelets [4],efficiently preserved the size and density of platelets
same,platelet events within the platelet gate,"mouse platelets [5]; 48 h at RT, DANA 1 mM and/or glucose 10 mM (57% in INTERSOL alone)",over 80%
same,state of platelet population by forward and side scatter,mouse platelets [5]; compared with glucose alone,more resting platelet population
same,formation of biofilm,[6],negatively impacted
same,bacterial growth (planktonic cell density),[7],inhibited the bacterial growth under all conditions
same,"loss (shedding) of platelet GPIbα and GPV induced by sialidase/neuraminidase, in presence of inhibitor",mouse platelets [8],completely prevented this loss; also recorded: prevented all GPIbα and GPV shedding; also recorded: inhibits the loss of platelet GPIbα
